{
  "source": "patent US20180200223A1",
  "about": "“APPLICATION OF NARINGENIN AND NARINGIN IN TUMOR RADIOTHERAPY” (INSTITUTE OF BIOPHYSICS CHINESE ACADEMY OF SCIENCES, priority 2015, published 2018)",
  "key": {"[1]": {"tested_on": "4T1 breast tumor with lung metastasis", "assay": "4T1 breast tumor lung metastasis mice with lung irradiation: lung injury, nodules, cytokines", "format": "in vivo, Balb/C mice", "protocol": "(1) Resuscitation and culture of 4T1 cells: Cell culture hood need to be sterilized by UV for 30 min before resuscitating the 4T1 cells. Equilibrate the RPMI 1640 culture medium (containing 10% fetal bovine serum) to room temperature for further application. The cryovial containing tumor cells are taken from liquid nitrogen storage and immediately put into a 37° C. water bath, shaking quickly until the cells are completely dissolved. Transfer the cells into a cell culture flask with 10-15 ml medium to suspend the sedimentary cells. After adjusting the concentration of the cells, culture the cells in an incubator with a saturated humidified atmosphere containing 5% (v/v) CO2 at 37° C. Replace fresh medium every day during. Digest the cells by 0.25% trypsin when the convergence of the cells reaches 90%, and then subculture the cells at a ratio of 1:3. On the day of experiment, we collect the cells by digesting the cells with 0.25% trypsin, then neutralize the trypsin with RPMI 1640 with 10% fetal bovine serum. Centrifuge the cells at 800 rpm, and then resuspend the cells in sterile PBS. After counting the density of cells, adjust the cells to 1×10^5/ml for tumor cells inoculation. (2) 4T1 cells are mixed well before inoculation. Pipet 0.3 ml of cells by a 1 ml sterile syringe, and inject 0.1 ml of cells per mouse (namely 1×10^4 4 T1 cells per mouse). (1) 4T1 murine breast tumor cell line was used to inoculate the tail vein of Balb/C mice to form lung metastatic tumors. 1×10^4 4 T1 cells were intravenously injected into the tail vein per mouse, and 10-15 days later nodules would develop in lung. (2) Set the day of inoculation as day 0. 200 mg/kg naringenin (Nar) (suspended in 1% CMC-Na) was administered orally to the mice at day 12 day after inoculation, namely 3 days before irradiation on the lungs. The mice received a 12 Gy of γ-ray irradiation once at day 14 after inoculation and keep naringenin administration. A part of the mice in each group were sacrificed at day 28 after inoculation and the blood, lung tissues were collected while the lungs were weighed. The tumor nodules in the lungs were observed under the condition of without destroying the integrity of lung tissues. Serum were separated and assayed for cytokines such as IL-6, IL-113, IFN-γ, etc. The lung tissues collected at day 28 after inoculation were used for biopsy and the observation of lung injury as well as inflammatory cells infiltration. The rest animals were used for survival observation. The mice in this experiment are separated into 4 groups as follows: • 1) Normal control group (Normal) • 2) 4T1 tumor-bearing mice without irradiation group (4T1) • 3) 4T1 tumor-bearing mice receiving lung irradiation without naringenin administration group (4T1+IR) • 4) 4T1 tumor-bearing mice receiving lung irradiation with naringenin administration group (4T1+IR+Nar) 3 groups of mice were inoculated with 4T1 tumor cells. Each group contains 12 mice with half male and half female which were fed in separate cages, and each cage contains 6 mice."}, "[2]": {"tested_on": "4T1 breast tumor with lung metastasis", "assay": "Survival of mice bearing 4T1 breast tumor with lung metastasis after radiotherapy", "format": "in vivo, Balb/c mice", "protocol": "(1) Resuscitation and culture of 4T1 cells: Cell culture hood need to be sterilized by UV for 30 min before resuscitating the 4T1 cells. Equilibrate the RPMI 1640 culture medium (containing 10% fetal bovine serum) to room temperature for further application. The cryovial containing tumor cells are taken from liquid nitrogen storage and immediately put into a 37° C. water bath, shaking quickly until the cells are completely dissolved. Transfer the cells into a cell culture flask with 10-15 ml medium to suspend the sedimentary cells. After adjusting the concentration of the cells, culture the cells in an incubator with a saturated humidified atmosphere containing 5% (v/v) CO2 at 37° C. Replace fresh medium every day during. Digest the cells by 0.25% trypsin when the convergence of the cells reaches 90%, and then subculture the cells at a ratio of 1:3. On the day of experiment, we collect the cells by digesting the cells with 0.25% trypsin, then neutralize the trypsin with RPMI 1640 with 10% fetal bovine serum. Centrifuge the cells at 800 rpm, and then resuspend the cells in sterile PBS. After counting the density of cells, adjust the cells to 1×10^5/ml for tumor cells inoculation. (2) 4T1 cells are mixed well before inoculation. Pipet 0.3 ml of cells by a 1 ml sterile syringe, and inject 0.1 ml of cells per mouse (namely 1×10^4 4 T1 cells per mouse). (1) 4T1 murine breast tumor cell line was intravenously injected to form lung metastatic tumors in Balb/c mice. Lung metastatic nodules would develop about 10-15 days after 1×10^4 4 T1 cells were inoculated. (2) Set the day of inoculation as day 0, at day 12 after inoculation, different doses of naringenin (Nar), namely 50, 100 and 200 mg/kg (suspended in 1% CMC-Na), were administered orally. The mice received γ-ray irradiation (8 Gy×2 f) at day 14 and day 15 after inoculation. […] The administration of either naringenin or dexamethasone plus cefixime continued until the mice started to die, and the survivals were observed and recorded. […]"}, "LLC lung tumor": {"tested_on": "LLC lung tumor", "assay": "LLC lung tumor bearing mice with lung irradiation", "format": "in vivo, C57B6/L mice", "source_text": "(1) LLC murine lung cancer cell line was used to intravenously inoculate the C57B6/L mice to form lung metastatic tumors. About 24 days after 5×10^5 LLC cells were inoculated, nodules in the lung would develop. (2) The mice were divided into 4 groups, and each group contains 10 mice. The grouping methods are as followed: 1) Normal control group (Normal); 2) LLC tumor-bearing mice without irradiation group (LLC); 3) LLC tumor-bearing mice receiving lung irradiation without naringenin administration group (LLC+IR); 4) LLC tumor-bearing mice receiving lung irradiation with naringenin (Nar) administration group (LLC+IR+Nar); Set the day of inoculation as day 0. (6) 100 mg/kg naringenin (Nar) (suspended in 1% CMC-Na) was administered orally to each of the mice in LLC+IR+Nar group at day 12 after inoculation (namely 3 days before lung irradiation); (7) The mice received γ-ray irradiation with a dose of 12 Gy per mouse per time at day 14 after inoculation; (8) Continue to orally administrate 100 mg/kg naringenin (Nar) (suspended in 1% CMC-Na) to each of the mice in LLC+IR+Nar group at day 15 day after inoculation (namely 1 day after lung irradiation); (9) At day 21 after inoculation, 5 animals in each group were randomly selected for sample collection. After dissection, the blood and lung tissues were collected, and the lungs were weighed. Then the number of tumor nodules in the lungs were counted without destroying the complete structure of lung tissues. (10) At day 37 after inoculation, the remaining animals in each group were sacrificed and dissected. The blood and lung tissues were collected, and the lungs were weighed. Then the number of tumor nodules in the lungs were counted without destroying the complete structure of lung tissues. Serum was separated and assayed for inflammatory cytokines such as IL-6, IL-113, IFN-γ, etc. The lung tissues were used for biopsy and the observation of lung injury and inflammatory cells infiltration. […]"}, "[3]": {"tested_on": "inflammatory cytokine IL-1β", "assay": "DNA fragment-induced IL-1β release from primary peritoneal macrophages (ELISA)", "format": "cell-based, mouse", "details": "100 μM pretreatment 2 h, DNA fragments 100 ng/mL 24 h, supernatant ELISA", "protocol": "4% Brewer thioglycollate medium (1.5 ml/mouse) was intraperitoneally injected. Four days later, washing the abdominal cavity of these mice with serum-free medium (DMEM) (10 ml/mouse). The lavage fluids were collected and centrifuged at 1300 rpm for 5 minutes. The cell pellet was resuspended and seeded into a 24-well plate at the concentration of 2×10^6 cells/well. Two hours later, the non-adherent cells were carefully removed and the remaining adherent cells are primary peritoneal macrophages. Identification: Macrophage surface marker F4/80 was detected by flow cytometry using PE-labelled anti-F4/80 antibody (ebioscience). […] Sample treatment: The macrophages were pretreated with 100 μM naringenin (Nar) for 2 h, and then were stimulated with DNA fragments (100 ng/mL) for 24h. The supernatants were collected and the concentration of inflammatory cytokine IL-1β (pg/mL) in the supernatant was measured by ELISA."}, "[4]": {"assay": "Total antioxidant capacity (FRAP method)", "details": "27 μM, absorbance 593 nm", "protocol": "The total antioxidant capacity of several flavonoids was detected by the total antioxidant capacity test kit (FRAP method). The principle of the FRAP method is that the antioxidant can reduce ferric-tripyridyltriazine (Fe^3+-TPTZ) to produce a blue Fe^2+-TPTZ under an acidic condition. Measuring the blue Fe^2+-TPTZ at a wavelength of 593 nm to access the antioxidant capacity of the sample. Since the reaction is carried out under an acidic condition, some of the endogenous interference factors can be excluded. (1) Prepare proper amount of FRAP working solution according to the samples numbers referring to the following table. The FRAP working solution was incubated at 37° C. and used no longer than 1-2 hours. Prepare 10 species of flavonoids: quercetin (Que), daidzein (Dai), kaempferol (Kae), apigenin (Api), naringenin (Nar), genistein (Gen), hesperidin (Her), luteolin (Lut), chrysin (Chr) and nobiletin (Nob). Make the final concentration of each flavonoid to 27 μM. Dissolve 27.8 mg of FeSO4.7H2O provided by this kit and dilute to 1 ml to make the concentration to 100 mM. Take an appropriate amount of FeSO4 solution and dilute it to 0.15, 0.3, 0.6, 1.2 and 1.5 mM, respectively. Distilled water or sample preparation solution was used for the preparation of the standards. […] (3) Incubate the plate at 37° C. for 3-5 min, and then determine the absorbance at 593 nm. […]"}, "[5]": {"details": "200 mg/kg oral, 12 Gy γ-ray, compared to 4T1+IR group"}},
  "data": [
    {"smiles": "O=C1C[C@@H](c2ccc(O)cc2)Oc2cc(O)cc(O)c21", "note": "[naringenin]", "values": [
      {"measurement": "number of tumor nodules in lungs", "setting": "[1]; 200 mg/kg oral from day 12, 12 Gy γ-ray at day 14, day 28, compared to 4T1 group and 4T1+IR group", "result": "decreased"},
      {"measurement": "lung injury and fibrosis (pathological analysis)", "setting": "[1]; 200 mg/kg oral, 12 Gy γ-ray, day 28, 4T1+IR+Nar vs 4T1+IR", "result": "markedly alleviated"},
      {"measurement": "serum level of IFN-γ", "setting": "[1]; [5]", "result": "significantly changed"},
      {"measurement": "serum level of IL-1β", "setting": "[1]; [5]", "result": "significantly changed"},
      {"measurement": "serum level of IL-6", "setting": "[1]; [5]", "result": "significantly changed"},
      {"measurement": "survival of tumor-bearing mice compared with positive drugs (DXM+CXL)", "setting": "[2]; 100 mg/kg oral vs dexamethasone 0.25 mg/kg plus cefixime 200 mg/kg", "result": "improvement in the survival"},
      {"measurement": "sensitizing/synergizing effect combined with radiotherapy (survival)", "setting": "[2]; 100 mg/kg oral, compared among the 3 doses", "result": "highest sensitizing/synergizing effect"},
      {"measurement": "survival of tumor-bearing mice", "setting": "[2]; 50, 100 and 200 mg/kg oral, γ-ray 8 Gy×2 f, compared with 4T1+IR group", "result": "significantly prolonged"},
      {"measurement": "number of tumor nodules in lungs", "setting": "LLC lung tumor; 100 mg/kg oral, 12 Gy γ-ray at day 14, compared to LLC and LLC+IR group", "result": "significantly decreased"},
      {"measurement": "lung injury (pathological analysis)", "setting": "LLC lung tumor; 100 mg/kg oral, 12 Gy γ-ray, LLC+IR+Nar vs LLC+IR", "result": "significantly alleviated"},
      {"measurement": "survival of mice bearing LLC lung tumor after radiotherapy", "setting": "LLC lung tumor; FIG. 5 legend", "result": "prolongs the survival"},
      {"measurement": "release of inflammatory cytokine IL-1β", "setting": "[3]", "result": "significantly reduces"},
      {"measurement": "antioxidant capacity", "setting": "[4]", "result": "very weak"}
    ]}
  ]
}
